A short description of experiment [1]: Antagonist screening for pea protein off-notes on VAS aroma blending device, off-note Ex. D. The note with it: off-note channel 4, 0.10% in MCT, flow 15; antagonist channel conc. as in Table 2 c2. Details: key to Off-note Ex. D masking effect: +++ being most effective; ++ in the middle; + some effect; +/− being in between; − being no effect. On the procedure: (§1) In one embodiment, the screening step is carried out using the above described aroma blending device as follows: each off-note molecule(s) identified from a target non-animal derived protein may be loaded into its own individual cartridge or channel (for example, propyl-iso-2-methoxy-3-pyrazine may be loaded into cartridge/channel #1, and isobutyl-3-methoxy-2-pyrazine may be loaded into cartridge/channel #2, etc.); next, the target non-animal protein is diluted as will be discussed below and may be loaded into its own individual cartridge/channel, for example, cartridge/channel #6 to act as the control or base; next, each antagonist candidate molecule that has been identified may be loaded into its own individual cartridge/channel (for example, molasses distillate may be loaded into cartridge/channel #7 and bisabolene may be loaded into cartridge/channel #8, etc). Next, the gas flow on the off-note molecule containing cartridge/channel is first opened, followed by one of the antagonist candidate molecule containing cartridges/channels. The intensity of the flow of the antagonist candidate molecule containing cartridge/channel is adjusted until the off-note is canceled or neutralized by the antagonist candidate molecule, i.e neutralization concentration. This process is repeated for each antagonist candidate molecule containing cartridges/channels so that all of the potential antagonist candidate molecules are screened.
(§2) Selection and screening of the antagonist molecules was performed using the VAS aroma blending device. As described above, each off-note molecule from Table 1 was loaded into its own individual cartridge or channel as shown in Table 2 (#'s 1-5). Each off-note molecule was diluted with medium-chain triglyceride (“MCT”) prior to loading into the cartridge/channel. Next, the target non-animal protein was diluted at 2% plus 0.1% xanthan gum in water with a small amount of antifoam agent (0.01%) and was placed into a cartridge/channel (#21). Each antagonist candidate molecule was then diluted with MCT in a pre-determined concentration and was loaded into a cartridge/channel as shown in Table 2 (#'s 6-20). Next, the gas flow (between 0 to 500 ml/min) on the off-note molecule containing cartridge/channel is first opened, followed by one of the antagonist candidate molecule containing cartridges/channels. The intensity of the flow of the antagonist candidate molecule containing cartridge/channel is adjusted until the off-note is canceled or neutralized by the antagonist candidate molecule, i.e neutralization concentration. This process is repeated for each antagonist candidate molecule containing cartridges/channels so that all of the potential antagonist candidate molecules are screened.
(§3) The numeric number in the column refers the flow rate on VAS aroma blending device.

Experiment [2] can be described thus: Antagonist screening for pea protein off-notes on VAS aroma blending device, off-note Ex. B. Details: key to Off-note Ex. B masking effect: +++ being most effective; ++ in the middle; + some effect; +/− being in between; − being no effect. To be noted: off-note channel 2, 0.001% in MCT, flow 150; antagonist channel conc. as in Table 2 c2. On the procedure:
as §1, §2, §3

Experiment [3] is described as follows: Antagonist screening for pea protein off-notes on VAS aroma blending device, off-note Ex. C. The note with it: off-note channel 3, 0.01% in MCT, flow 185; antagonist channel conc. as in Table 2 c2. Also noted: key to Off-note Ex. C masking effect: +++ being most effective; ++ in the middle; + some effect; +/− being in between; − being no effect. The method, then:
as §1, §2, §3

A short description of experiment [4]: Antagonist screening for pea protein off-notes on VAS aroma blending device, off-note Ex. A. To be noted: off-note channel 1, 0.01% in MCT, flow 300; antagonist channel conc. as in Table 2 c2. Details: key to Off-note Ex. A masking effect: +++ being most effective; ++ in the middle; + some effect; +/− being in between; − being no effect. On the procedure:
as §1, §2, §3

Experiment [5] is described as follows: Antagonist screening for pea protein off-notes on VAS aroma blending device, off-note Ex. E. Also noted: key to Off-note Ex. E masking effect: +++ being most effective; ++ in the middle; + some effect; +/− being in between; − being no effect. The note with it: off-note channel 5, 1.0% in MCT, flow 150; antagonist channel conc. as in Table 2 c2. The method, then:
as §1, §2, §3

Turning to `CCOC(=O)C(C)O` (stereo not drawn) [Ethyl lactate], in experiment [1], the “Off-note Ex. D Flow Rate (antagonist channel)” value (“Off-note Ex. D Flow Rate” below) was determined as 200 mL/min and the “Off-note Ex. D masking effect” value was “++”. For the same compound, in experiment [2], the “Off-note Ex. B Flow Rate (antagonist channel)” value (from here on “Off-note Ex. B Flow Rate”) turned out to be 100 mL/min and the “Off-note Ex. B masking effect” value is listed as “+++”. In experiment [3], the “Off-note Ex. C Flow Rate (antagonist channel)” value (shortened to “Off-note Ex. C Flow Rate”) worked out at 200 mL/min and the “Off-note Ex. C masking effect” value was “++”. In experiment [4], the “Off-note Ex. A Flow Rate (antagonist channel)” value (from here on “Off-note Ex. A Flow Rate”) was 90 mL/min and the “Off-note Ex. A masking effect” value was “+++”.

On to `C=CCOC(=O)CCC1CCCCC1` [Ally1 Cyclohexyl Proprionate], for which the “Off-note Ex. D masking effect” value in experiment [1] is “−”. Moreover, the “Off-note Ex. B masking effect” value in experiment [2] was “−”. In addition, in experiment [3], the “Off-note Ex. C Flow Rate” value is 100 mL/min and the “Off-note Ex. C masking effect” value is “+++”. In experiment [5], the “Off-note Ex. E Flow Rate (antagonist channel)” value (“Off-note Ex. E Flow Rate” for short) was 175 mL/min and the “Off-note Ex. E masking effect” value is “++”. In experiment [4], the “Off-note Ex. A Flow Rate” value was determined as 165 mL/min and the “Off-note Ex. A masking effect” value is recorded as “+/−”.

As for Caryophyllene, in experiment [1], the “Off-note Ex. D Flow Rate” value came to 150 mL/min and the “Off-note Ex. D masking effect” value is given as “++”. In addition, the “Off-note Ex. B masking effect” value in experiment [2] was “+”. For the same compound, the “Off-note Ex. C masking effect” value in experiment [3] is “−”. Moreover, in experiment [5], the “Off-note Ex. E Flow Rate” value lay within 200 to 225 mL/min and the “Off-note Ex. E masking effect” value is “+”. Besides, in experiment [4], the “Off-note Ex. A Flow Rate” value was found to be 100 mL/min and the “Off-note Ex. A masking effect” value is listed as “+++”.

In the case of `CCCCCCCCCCCCCCCC(=O)OCC` [Ethyl Palmitate], the “Off-note Ex. D masking effect” value in experiment [1] is on record as “−”. Also, the “Off-note Ex. B Flow Rate” value in experiment [2] was determined as 100 mL/min. In addition, in experiment [3], the “Off-note Ex. C Flow Rate” value amounted to 35 mL/min and the “Off-note Ex. C masking effect” value is on record as “++”. Further, in experiment [5], the “Off-note Ex. E Flow Rate” value was 300 mL/min and the “Off-note Ex. E masking effect” value is recorded as “+”. Besides, the “Off-note Ex. A masking effect” value in experiment [4] is on record as “−”.

Regarding `CCOC(=O)CCC(=O)OCC` [Diethyl Succinate], in experiment [1], the “Off-note Ex. D Flow Rate” value is 200 mL/min and the “Off-note Ex. D masking effect” value is listed as “++”. In experiment [2], the “Off-note Ex. B Flow Rate” value was determined as 300 mL/min and the “Off-note Ex. B masking effect” value is “++”. Also, in experiment [3], the “Off-note Ex. C Flow Rate” value was found to be 200 mL/min and the “Off-note Ex. C masking effect” value is “+/−”. Moreover, in experiment [4], the “Off-note Ex. A Flow Rate” value amounted to 250 mL/min and the “Off-note Ex. A masking effect” value is recorded as “++”.

On to Bisabolene, for which the “Off-note Ex. D masking effect” value in experiment [1] was “−”. In experiment [2], the “Off-note Ex. B masking effect” value was “−”. Further, the “Off-note Ex. C masking effect” value in experiment [3] is on record as “−”. In experiment [5], the “Off-note Ex. E Flow Rate” value turned out to be 150 mL/min and the “Off-note Ex. E masking effect” value is listed as “+”. For the same compound, the “Off-note Ex. A masking effect” value in experiment [4] is “−”.

Source of the values: US20240341337A1, “METHOD FOR CREATING MASKING COMPOSITIONS” (GIVAUDAN SA, priority 2021, published 2024).
